The text below walks through data of PMC9851200, “Multiparameter phenotypic screening for endogenous TFEB and TFE3 translocation identifies novel chemical series modulating lysosome function” (Autophagy, 2022).

Common to all, as to assay type: binding
Assay [1] has as its target T1, kinases (KINOMEscan panel) (Homo sapiens, UniProt Q09013).
T1 sequence (Q09013 1-629): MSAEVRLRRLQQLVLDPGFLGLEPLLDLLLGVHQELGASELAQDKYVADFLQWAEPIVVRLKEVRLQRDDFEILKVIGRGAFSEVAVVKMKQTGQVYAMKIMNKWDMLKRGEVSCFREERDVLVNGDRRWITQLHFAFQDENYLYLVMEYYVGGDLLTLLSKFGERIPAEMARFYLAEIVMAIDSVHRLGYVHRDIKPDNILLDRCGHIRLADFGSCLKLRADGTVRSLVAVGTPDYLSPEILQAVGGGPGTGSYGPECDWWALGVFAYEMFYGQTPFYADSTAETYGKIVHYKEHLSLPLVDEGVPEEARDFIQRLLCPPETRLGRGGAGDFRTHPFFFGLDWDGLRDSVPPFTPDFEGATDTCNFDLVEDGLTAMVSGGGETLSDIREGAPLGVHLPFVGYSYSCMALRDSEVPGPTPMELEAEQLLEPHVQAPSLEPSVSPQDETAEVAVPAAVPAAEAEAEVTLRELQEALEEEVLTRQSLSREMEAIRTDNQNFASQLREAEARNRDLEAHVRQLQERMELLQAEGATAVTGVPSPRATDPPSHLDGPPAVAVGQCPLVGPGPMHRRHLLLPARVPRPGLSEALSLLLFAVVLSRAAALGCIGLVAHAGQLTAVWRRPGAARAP
As to conditions: kinase DMPK; NEW KINOMEscan.

Assay [2] deals with kinases (KINOMEscan panel) (Homo sapiens, UniProt Q9Y6M4). As to conditions: CSNK1G3; NEW KINOMEscan.
Chain of kinases (KINOMEscan panel) (Homo sapiens, UniProt Q9Y6M4) (Q9Y6M4 whole entry): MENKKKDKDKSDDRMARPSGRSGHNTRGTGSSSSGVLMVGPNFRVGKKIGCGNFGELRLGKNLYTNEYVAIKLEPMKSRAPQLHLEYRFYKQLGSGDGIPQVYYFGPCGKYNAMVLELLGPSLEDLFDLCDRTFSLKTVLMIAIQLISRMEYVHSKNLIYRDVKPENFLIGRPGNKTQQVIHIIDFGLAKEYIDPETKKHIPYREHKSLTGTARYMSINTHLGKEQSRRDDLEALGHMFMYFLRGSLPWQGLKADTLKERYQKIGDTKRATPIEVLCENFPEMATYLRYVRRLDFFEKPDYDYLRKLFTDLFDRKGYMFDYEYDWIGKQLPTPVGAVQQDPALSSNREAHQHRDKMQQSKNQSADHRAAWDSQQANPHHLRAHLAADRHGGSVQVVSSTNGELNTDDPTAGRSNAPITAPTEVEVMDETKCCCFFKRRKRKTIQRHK
The target in assay [3] is kinases (KINOMEscan panel) (Homo sapiens, UniProt Q96RR4). The conditions noted are these: CAMKK2; NEW KINOMEscan.
Chain of kinases (KINOMEscan panel) (Homo sapiens, UniProt Q96RR4) (Q96RR4 whole entry): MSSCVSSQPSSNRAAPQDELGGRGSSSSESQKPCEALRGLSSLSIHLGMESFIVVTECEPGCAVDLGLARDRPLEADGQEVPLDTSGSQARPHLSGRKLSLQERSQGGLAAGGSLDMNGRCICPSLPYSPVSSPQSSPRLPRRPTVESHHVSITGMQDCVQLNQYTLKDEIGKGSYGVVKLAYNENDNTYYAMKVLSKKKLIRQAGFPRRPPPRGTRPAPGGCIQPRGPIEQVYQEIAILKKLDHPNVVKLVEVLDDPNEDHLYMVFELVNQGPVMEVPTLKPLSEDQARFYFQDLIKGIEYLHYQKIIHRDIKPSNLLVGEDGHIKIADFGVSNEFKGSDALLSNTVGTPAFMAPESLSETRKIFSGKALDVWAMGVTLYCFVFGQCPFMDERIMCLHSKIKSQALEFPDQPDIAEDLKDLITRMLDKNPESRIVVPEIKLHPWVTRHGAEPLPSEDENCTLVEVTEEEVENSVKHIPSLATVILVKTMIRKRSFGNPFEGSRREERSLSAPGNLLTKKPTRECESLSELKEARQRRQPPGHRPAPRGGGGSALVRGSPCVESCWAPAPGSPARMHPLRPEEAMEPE
The target of assay [4] is T2, kinases (KINOMEscan panel) (Homo sapiens, UniProt Q96L34).
T2 sequence (Q96L34 1-752): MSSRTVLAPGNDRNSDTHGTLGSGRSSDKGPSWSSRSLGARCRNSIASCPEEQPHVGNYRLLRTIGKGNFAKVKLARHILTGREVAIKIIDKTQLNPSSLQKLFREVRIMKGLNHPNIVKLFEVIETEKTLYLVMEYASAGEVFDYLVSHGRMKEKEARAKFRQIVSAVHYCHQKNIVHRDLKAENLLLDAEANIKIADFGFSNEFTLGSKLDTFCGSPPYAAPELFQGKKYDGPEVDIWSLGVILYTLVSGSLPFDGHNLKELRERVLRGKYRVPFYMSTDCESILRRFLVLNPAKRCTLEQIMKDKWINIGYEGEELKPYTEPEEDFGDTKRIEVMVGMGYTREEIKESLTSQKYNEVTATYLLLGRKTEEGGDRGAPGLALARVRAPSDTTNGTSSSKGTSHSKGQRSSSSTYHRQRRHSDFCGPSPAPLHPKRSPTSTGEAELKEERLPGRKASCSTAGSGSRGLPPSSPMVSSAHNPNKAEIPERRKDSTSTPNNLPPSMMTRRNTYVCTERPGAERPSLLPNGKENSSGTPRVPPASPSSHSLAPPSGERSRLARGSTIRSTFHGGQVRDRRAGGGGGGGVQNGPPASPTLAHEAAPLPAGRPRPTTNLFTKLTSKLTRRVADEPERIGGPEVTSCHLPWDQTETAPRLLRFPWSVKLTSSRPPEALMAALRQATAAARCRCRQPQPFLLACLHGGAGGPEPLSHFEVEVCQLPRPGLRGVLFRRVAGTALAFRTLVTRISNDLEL
As to conditions: kinase MARK4; NEW KINOMEscan.

In assay [5] the target is T3, kinases (KINOMEscan panel) (Homo sapiens, UniProt Q9NRP7).
T3 sequence (Q9NRP7 1-1315): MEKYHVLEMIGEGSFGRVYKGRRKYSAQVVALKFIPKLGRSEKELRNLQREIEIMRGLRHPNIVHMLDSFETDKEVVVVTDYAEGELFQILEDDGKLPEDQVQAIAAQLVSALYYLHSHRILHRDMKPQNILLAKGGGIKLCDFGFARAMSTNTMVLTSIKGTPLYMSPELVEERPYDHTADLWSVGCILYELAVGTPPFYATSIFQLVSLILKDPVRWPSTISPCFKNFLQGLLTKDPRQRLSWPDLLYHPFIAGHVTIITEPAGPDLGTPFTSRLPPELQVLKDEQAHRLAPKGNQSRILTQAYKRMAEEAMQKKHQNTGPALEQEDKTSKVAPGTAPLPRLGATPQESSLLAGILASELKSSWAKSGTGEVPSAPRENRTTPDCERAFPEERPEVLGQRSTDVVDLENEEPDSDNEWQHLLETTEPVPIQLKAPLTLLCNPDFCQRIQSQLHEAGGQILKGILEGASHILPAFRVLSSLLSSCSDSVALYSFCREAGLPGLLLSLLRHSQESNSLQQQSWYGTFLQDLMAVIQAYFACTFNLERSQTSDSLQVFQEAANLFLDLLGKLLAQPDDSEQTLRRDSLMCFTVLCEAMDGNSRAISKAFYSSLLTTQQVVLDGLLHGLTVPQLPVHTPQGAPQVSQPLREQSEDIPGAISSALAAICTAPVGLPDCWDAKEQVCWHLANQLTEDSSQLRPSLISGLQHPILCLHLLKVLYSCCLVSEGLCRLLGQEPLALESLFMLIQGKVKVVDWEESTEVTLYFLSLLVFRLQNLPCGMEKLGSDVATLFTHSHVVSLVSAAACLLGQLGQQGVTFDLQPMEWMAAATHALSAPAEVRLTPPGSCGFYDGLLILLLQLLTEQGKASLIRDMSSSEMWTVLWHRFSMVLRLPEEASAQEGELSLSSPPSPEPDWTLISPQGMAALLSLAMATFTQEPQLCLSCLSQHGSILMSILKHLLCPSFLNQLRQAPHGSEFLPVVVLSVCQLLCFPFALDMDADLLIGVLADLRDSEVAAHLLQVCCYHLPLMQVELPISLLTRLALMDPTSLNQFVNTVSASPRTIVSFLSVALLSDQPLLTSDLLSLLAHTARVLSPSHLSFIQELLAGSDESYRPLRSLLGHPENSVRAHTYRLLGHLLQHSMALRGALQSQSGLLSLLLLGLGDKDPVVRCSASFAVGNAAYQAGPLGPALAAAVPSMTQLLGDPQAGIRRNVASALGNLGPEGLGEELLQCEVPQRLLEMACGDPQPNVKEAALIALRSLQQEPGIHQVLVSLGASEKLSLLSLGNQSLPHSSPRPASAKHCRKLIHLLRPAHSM
As to conditions: STK36; NEW KINOMEscan.

Assay [6] has as its target kinases (KINOMEscan panel) (Homo sapiens, UniProt P08631). As to conditions: kinase HCK; NEW KINOMEscan.

Chain of kinases (KINOMEscan panel) (Homo sapiens, UniProt P08631) (P08631 whole entry): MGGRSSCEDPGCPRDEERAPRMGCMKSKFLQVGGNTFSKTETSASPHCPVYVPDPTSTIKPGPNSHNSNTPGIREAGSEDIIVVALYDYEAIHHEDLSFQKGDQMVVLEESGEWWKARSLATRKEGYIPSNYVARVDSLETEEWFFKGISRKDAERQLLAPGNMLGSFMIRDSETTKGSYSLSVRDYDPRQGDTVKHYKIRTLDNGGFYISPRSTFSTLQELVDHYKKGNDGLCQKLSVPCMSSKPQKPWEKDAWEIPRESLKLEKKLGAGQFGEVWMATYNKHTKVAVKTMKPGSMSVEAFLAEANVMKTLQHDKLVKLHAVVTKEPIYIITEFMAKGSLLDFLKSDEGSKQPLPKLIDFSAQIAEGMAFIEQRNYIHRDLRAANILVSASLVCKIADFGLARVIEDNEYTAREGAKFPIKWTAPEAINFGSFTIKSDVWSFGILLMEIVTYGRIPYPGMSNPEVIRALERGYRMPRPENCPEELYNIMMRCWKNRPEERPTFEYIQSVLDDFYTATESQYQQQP

As for `Cc1cccc(-c2nc(N(C)c3ccc4ncsc4c3)c3ccccc3n2)n1` [NK-161], the “KINOMEscan DMPK” value in assay [1] is recorded as 0. Further, in assay [2], the “KINOMEscan CSNK1G3” value stood at 0. Moreover, the “KINOMEscan CAMKK2” value in assay [3] is 9. In assay [4], the “KINOMEscan MARK4” value turned out to be 16. Besides, in assay [5], the “KINOMEscan STK36” value came out at 7. For the same compound, in assay [6], the “KINOMEscan HCK” value was found to be 16.

Turning to `Cc1cccc(-c2nc(Nc3ccc4nn(C)cc4c3)c3ccccc3n2)n1` [NK167], in assay [1], the “KINOMEscan DMPK” value is recorded as 0. In addition, the “KINOMEscan CSNK1G3” value in assay [2] is on record as 0. Moreover, the “KINOMEscan CAMKK2” value in assay [3] was found to be 6. Also, the “KINOMEscan MARK4” value in assay [4] worked out at 34. In assay [5], the “KINOMEscan STK36” value is 0. In assay [6], the “KINOMEscan HCK” value amounted to 14.
